Each structure is given as a SMILES string. Several values for one entry are separate records, joined by “and”; a condition that tells them apart may be missing. Equal values may be shown once.

For this assay, the system named is NAD and NADP in whole blood. The conditions noted are these: hypercholesterolemia subjects, 750 mg of niacin twice daily for two months.

Description: The term niacin number has been chosen as a convenient way to represent niacin status and is defined as the ratio of the concentration of NAD to the concentration of NADP multiplied by 100 (100·[NAD]/[NADP]) in whole blood. For example, if the relative concentration of NADP([NADP]) is 1 and the relative concentration of NAD([NAD]) is 0.72, the niacin number would be 72 (from the formula 100·[NAD]/[NADP]=72 wherein [NAD] is 0.72 and [NADP] is 1). Expressing the values in this way yields a whole number that is linearly related to intracellular NAD content of red blood cells.

Turning to `O=C(O)c1cccnc1` [niacin, pyridine 3-carboxylic acid], under “pretherapy mean 175”, the Mean niacin number was 665 and 665 ± 115. The “Range observed (niacin number)” value (pretherapy range 131-242) is 517-746.

Values taken from patent publication US6428972B2, “Biochemical method to measure niacin status in a biological sample” (Niadyne, Inc., priority 1998, dated 2002).
